Laboratory results taken from patent US9140692B1, “Methods of identifying glycopeptides recognized by disease-associated auto-antibodies” (Glycozym, Inc., priority 2010, dated 2015).
“Also recorded” adds a separate entry of the source.

What follows are substances tested on human IgG antibodies (cancer-associated auto-antibodies in serum) (assay: Glycopeptide microarray screening of the 96 paired peptide/GalNAc-glycopeptide library with human sera). Conditions: serum of newly diagnosed prostate cancer patient #762, 1:25 dilution, labeled anti-human IgG; FIG. 2.
Assay type: binding
Source text: A panel of human sera was obtained from CHTN (Cooperative Human Tissue Network) and Asterand Inc., under the guidelines of approved agreements by the providers. Sera obtained were from control individuals (“normal”) (n=31) and from newly diagnosed cancer patients (n=147) with pancreatic, breast, colon, lung, prostate or ovary primary cancers. Briefly, for cancer sera, all blood samples were obtained on or near date of diagnosis, and serum was processed immediately, flash frozen and stored at −70° C. until shipment. Serum samples received from the providers as frozen aliquots generally of 1-2 mL were brought to room temperature, vortexed and distributed into 20-100 μL aliquots in closeable Eppendorf tubes (vWR) (pre-labeled), and immediately frozen and stored at −70° C. until use.
Glycopeptides (20-mers with and without a single GalNAc residue at position 12) and control structures (corresponding unglycosylated peptides) were printed on Corning (Corning, N.Y.), Scienion (Germany) or Schott Nexterion® Slide H or Schott Nexterion® Slide H MPX 16 (Schott AG, Mainz, Germany) by JPT (Germany). Triplicates or quadruplicates of all compounds were printed at optimal concentrations (1-50 μM) or 50× excess relative to scale of synthesis for spot-synthesized glycopeptides printed without purification. After printing, slides were incubated for 1 hour (h) in a humidified hybridization chamber with 70-100% relative humidity and stored until use at 4° C. Unspotted slide areas were blocked for 1 h with 25 mM ethanolamine in 100 mM sodium borate pH 8.5. If an enzyme step was needed either to increase sites of GaLNac attachments in peptides or extend O-glycans to T, STn, core 3 or other structures, addition of the enzyme reaction mixture in 25-35 μL was made in appropriate wells and the slide incubated at 37° C. for 1 h, after which it was washed in PBS/0.05% Tween and then PBS, and then spun dry.
Human sera (usually diluted 1:25), monoclonal antibodies, lectins and the like were added in 25 μL and the slide left at room temperature for 2 h in a moist, humid chamber after which it was washed as above and spun dry (if no superstructure). Secondary antibodies were added at appropriate concentrations (for human sera, usually 1:1500 for anti-human IgG with a Cy3 chromophore). In some cases, for some controls, lectin-Cy3 was used directly as final step. The final step was washing as above, with a brief de-ionized water wash and the slide spun dry for scanning Analysis was made on a GenePix 4200AL Scanner at PMT 400 and power mode 10-50. Data were analyzed and plotted using Microsoft Excel.
Glycopeptides (20-mers with and without a single GalNAc residue at position 12) were printed in triplicates (horizontal) on Scineon 16-well slides by JPT (Germany) and bound human IgG antibodies detected by a labeled secondary anti-human IgG antibody. FIG. 2 illustrates examples of reactivities of serum (1:25 dilution) from a newly diagnosed prostate cancer patient (#762 in Panel A) and a normal control serum from a healthy individual (#174 in Panel B) on the library of 96 paired peptides/GalNAc-glycopeptides as designated in Table II. Candidate cancer-associated IgG antibodies identified in the cancer serum directed to GalNAc glycopeptide epitopes are indicated by open circles labeled 20/21, 62/63, and 86/87 for the paired peptide and GalNAc glycopeptides, respectively. […]
FIG. 4 illustrates results of screening 147 cancer sera and 31 normal sera on the glycopeptide pair #62/63. FIG. 5 illustrates results of screening 147 cancer sera and 31 normal sera on the glycopeptide pair #86/87.

Row | Substance | reactivity of serum IgG antibodies with printed peptide/GalNAc-glycopeptide
1 | SESFPHPGFNMSLLENHTRQ [Peptide 86, derived from KLK1] | do not react; also recorded: not the corresponding peptide
2 | SESFPHPGFNMSLLENHTRQ [Peptide 87, derived from KLK1] | specifically reacting; also recorded: labels
3 | SHHSDESDELVTDFPTDLPA [Peptide 20, derived from SPP1] | do not react; also recorded: not the corresponding peptide
4 | SHHSDESDELVTDFPTDLPA [Peptide 21, derived from SPP1] | specifically reacting; also recorded: labels
5 | TPTPKEKPEAGTYSVNNGND [Peptide 62, derived from LAMP2] | do not react; also recorded: not the corresponding peptide
6 | TPTPKEKPEAGTYSVNNGND [Peptide 63, derived from LAMP2] | specifically reacting; also recorded: labels

What follows are substances tested on human IgG antibodies from cancer patients (assay: Microarray screening of the larger GalNAc O-glycopeptide library (Table III) with human cancer and control sera). Conditions: FIG. 6; sera at 1:20 dilution, anti-human-IgG Cy3.
Assay type: binding
Source text: FIG. 6A: glycopeptides 889 (SEQ ID NO: 134), 275a (SEQ ID NO: 86), and 585 (SEQ ID NO: 109). FIG. 6B: glycopeptides 893 (SEQ ID NO: 135), 931-C3 (SEQ ID NO: 146), and 852-C3 (SEQ ID NO: 145). FIG. 6C: gycopeptides 873 (SEQ ID NO: 132) and 690 (SEQ ID NO: 116). The following human sera were used for FIGS. 6A and 6B: 32 ovarian cancer (O), 38 breast cancer (B), 54 colon cancer (C), 17 lung cancer (L), as well as 145 normal sera (N) (Asterand Corp). The following sera were used for FIG. 6C: 32 ovarian cancer (O), 38 breast cancer […], 54 colon cancer (C), 42 lung cancer (L), 52 pancreactic cancer (Pn), 35 prostatic cancer (Pr), 8 inflammatory disease (In), 8 benign controls (Bn), and 145 healthy controls (N). Sera were screened at 1:20 dilution. Anti-human-IgG conjugated to Cy3 was used as the secondary detection unit and slides were scanned with a GenePix 4200AL Microarray Scanner.
A larger library of GalNAc O-glycopeptides designed with GalNAc linked to serine or threonine at position 12 in 20-mer peptides was produced as described in Example 1. Peptides were selected among cell membrane and secreted human proteins that contain serine and threonine residues that are predicted to be O-glycosylated by the NetOGlyc algorithm (Julenius et al. 2005). A total of 960 GalNAc glycopeptides were synthesized at 0.5 mg scale (Sigma) and printed on microarray hydrogel slides (Schott Nexterion) as described in Example 1. Slides were reacted with human cancer sera (ovarian, breast, colon, lung, pancreas, prostate, 235 total sera) and control sera (145 healthy, 20 inflammatory, 20 benign tumor). Glycopeptides preferentially reactive with human IgG antibodies from cancer patients compared to controls were selected for resynthesis at 5 mg scale with amidated C-terminus (New England Peptide (Gardner, Mass.) (Table III). Resynthesized glycopeptides were reprinted on microarray slides at 50 μM and reacted with human cancer sera (Total 286 sera: 32 ovarian cancer (O), 38 breast cancer (B), 54 colon cancer (C), 17 lung cancer (L), and 145 age and sex matched control normal sera as described in Example 1. Table III lists glycopeptides exclusively or preferentially reactive with human IgG from cancer patients compared to controls and examples of reactivities are shown in FIG. 6.
Since IgG antibodies reactive with glycopeptides epitopes recognize both the peptide sequence in close proximity to the O-glycan (i.e., one to five or even eighth residues N- and C-terminal of the O-glycan) as well as the O-glycan structure, it is clear that different glycoforms of one glycopeptide may be recognized by different IgG antibodies and these antibodies may be found in different cancer patients. In this Example, GalNAc-glycopeptides from MUC1 and MUC4 were also produced as the core 3 GlcNAcβ1-3GalNAcα1-O-Ser/Thr glycoform with a recombinant core 3 synthase as described in Example 1.

Row | Substance | reactivity with IgG from newly diagnosed cancer patients compared to normal control sera
7 | H2N-ASRYNLTISDVSVSDVPFPF-amide (H-ASRYNLTISDVSVSDVPFPF-NH2; also: O-GalNAc glycopeptide, sites not given here) [Peptide 893] | reactive with IgG from newly diagnosed cancer patients
8 | H2N-HDVETQFNQYKTEAASRYNL-amide (H-HDVETQFNQYKTEAASRYNL-NH2; also: O-GalNAc glycopeptide, sites not given here) [Peptide 889] | reactive with IgG from newly diagnosed cancer patients
9 | H2N-LAKMYYSAVEPTKDIFTGLI-amide (H-LAKMYYSAVEPTKDIFTGLI-NH2; also: O-GalNAc glycopeptide, sites not given here) [Peptide 275a] | reactive with IgG from newly diagnosed cancer patients
10 | H2N-PGTSTTPSQPNSAGVQDTEM-amide (H-PGTSTTPSQPNSAGVQDTEM-NH2; also: O-GalNAc glycopeptide, sites not given here) [Peptide 690] | reactive with IgG from newly diagnosed cancer patients
11 | H2N-SLASQATDIFST[GlcNAc] VPPTPPSI-amide [Peptide 931-C3] | reactive with IgG from newly diagnosed cancer patients
12 | H2N-TDCGGPKDHPLTCDDPRFQA-amide (H-TDCGGPKDHPLTCDDPRFQA-NH2; cysteine pairing not given here; also: O-GalNAc glycopeptide, site not shown) [Peptide 585] | reactive with IgG from newly diagnosed cancer patients
13 | H2N-TKTDASSTHHSTVPPLTSSN-amide (H-TKTDASSTHHSTVPPLTSSN-NH2; also: O-GalNAc glycopeptide, sites not given here) [Peptide 873] | reactive with IgG from newly diagnosed cancer patients
14 | H2N-VPVTRPALGSTT[GlcNAc] PPAHDVTS-amide (H-VPVTRPALGSTTPPAHDVTS-NH2; not fully specified (residue 12)) [Peptide 852-C3] | reactive with IgG from newly diagnosed cancer patients

Same assay, conditions: resynthesized glycopeptides printed at 50 μM; cancer sera and 145 control normal sera

Row | Substance | reactivity with human IgG from cancer patients compared to controls
15 | H2N-SLASQATDIFST[GlcNAc] VPPTPPSI-amide [Peptide 931-C3] | exclusively recognized by IgG antibodies in sera from cancer patients
16 | H2N-VPVTRPALGSTT[GlcNAc] PPAHDVTS-amide (H-VPVTRPALGSTTPPAHDVTS-NH2; not fully specified (residue 12)) [Peptide 852-C3] | exclusively recognized by IgG antibodies in sera from cancer patients
